Assays:
Hct116/OxR = experiment: MTT assay, Hct116/OxR (oxaliplatin-resistant); format: cell-based; settings: Homo sapiens, HCT-116, 72 h, read-out: IC50 determined by MTT assays, Hct116/OxR
From the text: (§1) Cancer cell lines were obtained from either the European Collection of Cell Cultures (ECACC; Salisbury, UK) or the American Type Culture Collection (ATCC; Manassas, VA). The two glioma cell lines were the U373 (ECACC code 08061901) and Hs683 (ATCC HTB-138) cell lines. The carcinoma cell lines were the A549 non-small cell carcinoma cell line (ATCC code CCL 185) and the MCF-7 mammary breast carcinoma cell line (ATCC code HTB-22). The melanoma cell lines were the mouse B16F10 cells (ATCC code CRL-6475) and the human SKMEL-28 cells (ATCC code HTB-72). The ovarian cancer cell line A2780 and its cisplatin-resistant subline A2780cis were obtained from Sigma-Aldrich (St. Louis, MO, USA). Colon cancer HCT116 cells were obtained from ATCC (CCL-247) and the oxaliplatin-resistant subline HCT116/OxR established in the W. Berger lab[59]. The HeLa cell derivative KB-3-1 and the colchicine-selected, highly ABCB1-overexpressing subline KB-C-1 were generously donated by Dr. D. W. Shen, Bethesda, MD. RKOp53wt colon cancer cells together with the RKOp53KO (homozygous knock-out) subline[60] were generously provided by Dr. Vogelstein from John Hopkins University, Baltimore. The correct origin of all cell models was confirmed by STR during performance of the experiments. All cell lines were cultured in RPMI1640 culture medium supplemented with 10% heat-inactivated fetal bovine serum, 2% L-glutamine (0.6 mg/mL), 2% penicillin/streptomycin (200 IU/mL and 200 μg/mL) and 0.1 mg/mL gentamicin.
(§2) The MTT (3-(4,5-dimethylthiazol-2-yl)-2,5-diphenyl tetrazolium bromide) colorimetric assay has been conducted as described previously. Briefly, cells were seeded 24 h before their treatment with each compound for a period of 72 h. The concentrations tested ranged from 10 nM to 100 µM. Each assay was conducted in sextuplicates. The number of independent experiments is mentioned in the legend of the tables.
(§3) SI Table 1: IC50 determined by MTT assays. Mean concentration (± standard deviation) in µM required to
(§4) reduce the viability of cells by 50% after a 72 h treatment relative to the control.
(§5) Parental sensitive models Drug-resistant models

RKO/p53ko = experiment: MTT assay, RKO/p53ko; format: cell-based; settings: 72 h, read-out: IC50 determined by MTT assays, RKO/p53ko
From the text: as §1, §2, §3, §4, §5

[1] = molecular target: caspase-like activity of the proteasome (Homo sapiens, UniProt P28072); experiment: Cellular proteasomal caspase-like activity; format: cell-based
Description: The chemotrypsin-like, trypsin-like and caspase-like activities of the proteasome were evaluated in cells with the G8660, G8861 and G8761 kits respectively according to the manufacturer’s instructions (Promega, USA). Briefly, the assays are based on the use of short amino-acid sequences coupled with luciferin and that can be specifically cleaved by each catalytic unit of the proteasomal complex. For this purpose, cells were seeded in 96 well plates 24 h before their treatment with 1 (5 µM), 13 (1 µM) for 6 h or with the positive control MG132 (1 µM) for 24 h. At the end of the treatments, cells were washed three times with PBS and permeabilized with digitonin (0.5 mg/mL; 50 µL per well) under shaking for 10 min. Then, 50 µL of a mixture of the substrate of interest and luciferase were added for 15 min under slow shaking. Luminescence levels quantified with the Active-Glo LR-100 luminometer (DSLabs, Suisse) were normalized according the number of viable cells evaluated in parallel in the same conditions by means of MTT assay.

[2] = tested on: SKMEL-28 melanoma and U373 glioblastoma cells; experiment: Morphological evaluation by phase contrast microscopy / videomicroscopy; format: cell-based, human
Description: For the morphological evaluation of the effects induced by compounds 1 and 13, 6 × 10^4 cells were seeded on glass coverslips placed in 6 well plates a minimum 24 h before their treatment. At the end of the incubation period with the treatment, coverslips were rinsed once in PBS buffer and directly mounted on slides to allow visualization of the cell with an Axio.Imager.M2 microscope (G X40 and G X100).

[3] = tested on: SK-MEL-28 human melanoma and U373 glioblastoma cells; experiment: ER swelling / vacuole origin (CellLight ER-GFP, brightfield, TEM); format: cell-based; settings: SK-MEL-28 and U373 cells
From the text: To decipher the origin of vacuoles, fluorescent probes staining different cellular compartments were used: the lysosomal Red DND-99 LysoTracker®, the glibenclamide Red ER tracker®, the green FM MitoTracker® that were all purchased from Lifes Technologies (Invitrogen, Belgium) and used according to manufacturer’s instructions. The CellLight ER-GFP (Thermofisher, Belgium) staining of the ER is based on the transfection of a plasmid coding for a fusion protein made of GFP fused to the ER signal sequence of calreticulin and the KDEL ER retention signal. Briefly, 6 × 10^4 cells were seeded on glass coverslips in 6 well plates. After a minimum of 24 h, cells were treated or not with the compounds of interest. Note that concentration and duration of the treatment were determined separately for each compound prior to the experiment on the basis of the apparition of marked morphological changes in phase contrast microscopy. Sixteen hours before the end of the experiment, 4 µL/well of the reagent were added to allow transfection and expression of the GFP-fused protein by the cells. Coverslips were then washed twice in PBS and mounted on slides without fixation step to take captions with the Axio.Imager.M2 microscope (Carl Zeiss, Belgium). To evaluate the cellular distribution of 13, the Axio.Imager.M2 was specifically equipped with an M340L4 excitation source (Thorlabs) and the pseudoconfocal Zeiss ZEN deconvolution system kindly provided for demo by Carl Zeiss (Belgium) to allow direct visualization of the compound 13 itself thanks to its intrinsic fluorescent properties.
For TEM, cells were fixed with glutaraldehyde 2.5% (EM grade, Electron Microscopy Sciences, EMS) at 4 °C overnight, washed tree times in cacodylate buffer (pH 7.4) and postfixed 1 h at room temperature in 1% OsO4, (EMS), 1.5% potassium ferrocyanide (Sigma-Aldrich) in 0.15 M cacodylate buffer. This was immediately followed by a second incubation in 1% OsO4 for 1 h at room temperature. After washing in distilled water, samples were stained with 1% uranyl acetate (EMS) and serially dehydrated in increasing ethanol concentrations. Samples were then embedded in epoxy resin (Agar 100 resin, Agar Scientific Ltd) and left to polymerize for 2 days at 60 °C. Ultrathin sections (50–70 nm thick) were collected with a Leica UC6 ultra-microtome on formvar-carbon-coated copper grids and further stained with uranyl acetate and lead citrate by standard procedures. Observations were made on a Tecnai 10 transmission electron microscope (FEI) and images were captured with a Veleta camera and processed with SIS iTEM software (Olympus).

caspase-like activity of the proteasome, sequence (P28072 whole entry): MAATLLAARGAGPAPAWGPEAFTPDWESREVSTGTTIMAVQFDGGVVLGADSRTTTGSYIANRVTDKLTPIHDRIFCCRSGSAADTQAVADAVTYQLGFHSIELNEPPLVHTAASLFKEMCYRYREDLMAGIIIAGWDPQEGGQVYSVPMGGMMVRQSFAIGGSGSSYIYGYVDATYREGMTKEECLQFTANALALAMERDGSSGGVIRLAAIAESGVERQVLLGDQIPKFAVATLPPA

For `CC1(C=CCCCc2ccc3ccc4cccc5ccc2c3c45)C=C2C(=O)C3(O)OC(=O)C4(CCCC(C)(C)C34)C2(O)CC1` (stereo not drawn) [Compound 13], the IC50 (Hct116/OxR) was 800 ± 50 nM, the IC50 (RKO/p53ko) was 1500 ± 50 nM and the inhibition at 1 µM ([1]; 13 at 1 µM, 6 h of treatment, both SKMEL-28 and U373) was greater than 60%. The “time to severe vacuolization” value ([2]; SKMEL-28 and U373 respectively) was 15 to 24 h and the “ER swelling / ER-derived vacuolization” value [3] was “severe swelling of the ER”.
`CC1(C=CCCCc2ccc3ccc4cccc5ccc2c3c45)C=C2C(O)C3(O)OC(=O)C4(CCCC(C)(C)C34)C2(O)CC1` (stereo not drawn) [Compound 16] was tested, and the IC50 (Hct116/OxR) was 6600 ± 1300 nM, the IC50 (RKO/p53ko) was 6900 ± 400 nM and the “ER swelling / ER-derived vacuolization” value [3] was “severe ER-swelling”.
For `C=C[C@]1(C)C=C2C(=O)[C@@]3(O)OC(=O)[C@@]4(CCCC(C)(C)[C@H]34)[C@@]2(O)CC1` [Compound 1, sphaeropsidin A, reference compound], the IC50 (Hct116/OxR) was 1700 ± 400 nM, the IC50 (RKO/p53ko) was 1500 ± 100 nM and the “effect on caspase-like proteasomal activity” value ([1]; 1 at 5 µM, 6 h) was “stimulate caspase-like activity”. The “time to cellular shrinkage” value ([2]; SKMEL-28 and U373) was no more than 6 h.

— publication PMC11199504, “New hemisynthetic derivatives of sphaeropsidin phytotoxins triggering severe endoplasmic reticulum swelling in cancer cells” (Scientific Reports, 2024)
